Data published in publication PMC12118597 (Science Advances, 2025).
Like-named read-outs stand apart in the source and are kept apart here.

Target: SARS-CoV-2 NSP3 macrodomain (Mac1) (Severe acute respiratory syndrome coronavirus 2, UniProt P0DTD1)
Type: binding
Settings: for PanDDA run, overall: Hit / PanDDA run, overall: Modeled / PanDDA run, overall: Modeling comment: P43 crystal form; for Total number of conformations: ligand conformations modeled in the crystal structure; for 2*(1-BDC) (%): occupancy estimate from PanDDA
[1] = PanDDA background density correction factor
[2] = TRUE = crystal structure with ligand obtained
[3] = refined crystallographic occupancy
[4] = site of ligand in X-ray crystal structure
[5] = crystal soak 10 mM, TFA/DMSO background map

| Compound | Occupancy difference (refined_occupancy - 2*(1-BDC)) | 1-BDC [1] | X-ray crystal structure [2] | PanDDA run, overall: Hit (crystal soak 10 mM) | PanDDA run, overall: Modeled (crystal soak 10 mM) | PanDDA run, DMSO background map: 1-BDC (crystal soak 10 mM) | PanDDA run, DMSO background map: Hit (crystal soak 10 mM) | Total number of conformations | 2*(1-BDC) (%) | Refined ligand occupancy (%) [3] [%] | Binding site [4] | 1-BDC (PanDDA background density correction, 1-BDC) | Refined ligand occupancy (%) (crystallographic refinement) | X-ray crystal structure (ligand-bound crystal structure obtained (TRUE)) | Binding site (site occupied in X-ray crystal structure) | PanDDA run, overall: Modeling comment (crystal soak 10 mM) | PanDDA run, TFA/DMSO background map: 1-BDC [5] | PanDDA run, TFA/DMSO background map: Hit [5] |
| --- | --- | --- | --- | --- | --- | --- | --- | --- | --- | --- | --- | --- | --- | --- | --- | --- | --- | --- |
| Cn1cc(CC(CO)Nc2ncnc3[nH]ccc23)cn1 (stereo not shown) [AVI-3657] | 0 | 0.15 | TRUE | TRUE | TRUE | 0.15 | TRUE | 1 | 30 | 30 | Adenosine |  |  |  |  |  |  |  |
| OCC(CC1OCCO1)Nc1ncnc2[nH]ccc12 (stereo not shown) [AVI-3658] | 0 | 0.2 | TRUE | TRUE | TRUE | 0.2 | TRUE | 1 | 40 | 40 | Adenosine |  |  |  |  |  |  |  |
| OCC(Nc1ncnc2[nH]ccc12)c1ccco1 (stereo not shown) [AVI-3659] | 0 | 0.16 | TRUE | TRUE | TRUE | 0.16 | TRUE | 1 | 32 | 32 | Adenosine |  |  |  |  |  |  |  |
| OCC(CC1CCCO1)Nc1ncnc2[nH]ccc12 (stereo not shown) [AVI-3660] | 0 | 0.23 | TRUE | TRUE | TRUE | 0.23 | TRUE | 1 | 46 | 46 | Adenosine |  |  |  |  |  |  |  |
| OC1CCN(c2ncnc3[nH]ccc23)C1 (stereo not shown) [AVI-3661] |  |  |  | TRUE | TRUE | 0.15 | TRUE |  | 30 |  |  | 0.15 | 40 | TRUE | Adenosine |  |  |  |
| OCC(CC1CC1)Nc1ncnc2[nH]ccc12 (stereo not shown) [AVI-3662] | 0 | 0.14 | TRUE | TRUE | TRUE | 0.14 | TRUE | 1 | 28 | 28 | Adenosine |  |  |  |  | Distal site, weak density, not modeled |  |  |
| OCC(CC1CCOC1)Nc1ncnc2[nH]ccc12 (stereo not shown) [AVI-3665] | 0 | 0.17 | TRUE | TRUE | TRUE | 0.17 | TRUE | 1 | 34 | 34 | Adenosine |  |  |  |  |  |  |  |
| CCC(Nc1ncnc2[nH]ccc12)C(C)(C)O (stereo not shown) [AVI-3667] | 0 | 0.14 | TRUE | TRUE | TRUE | 0.14 | TRUE | 1 | 28 | 28 | Adenosine |  |  |  |  |  |  |  |
| CC(C)CCC(CO)Nc1ncnc2[nH]ccc12.O=C(O)C(F)(F)F (stereo not shown) [AVI-3668] |  |  |  | TRUE |  | 0.15 | TRUE |  |  |  |  |  |  |  |  | Weak density, not modeled | 0.09 | TRUE |
| OCC(Cc1nccs1)Nc1ncnc2[nH]ccc12 (stereo not shown) [AVI-3673] | 0 | 0.19 | TRUE | TRUE | TRUE | 0.19 | TRUE | 1 | 38 | 38 | Adenosine |  |  |  |  |  |  |  |
| Cc1ccccc1CC(CO)Nc1ncnc2[nH]ccc12 (stereo not shown) [AVI-3674] | 0 | 0.19 | TRUE | TRUE | TRUE | 0.19 | TRUE | 1 | 38 | 38 | Adenosine |  |  |  |  |  |  |  |
